Data set [1] relates to mature adipocytes (3T3-L1 cells). As to the kind of experiment: Glucose uptake enhancement inhibited by cytochalasin B. The format is cell-based. The method, then: The influence of cytochalasin B on 2-deoxyglucose uptake into matured adipocytes during the stimulation with the sample in the adipocytes was tested in accordance with the method shown in Example 83 on whether or not the enhancing action of 4-hydroxyderricin on glucose uptake shown in Example 83 is inhibited by cytochalasin B, which is an inhibitor of a glucose transporter.
Specifically, as a sample, a group with addition of a dimethyl sulfoxide solution of 4-hydroxyderricin so as to have a final concentration of 7.8 μM was set. Here, there were set a group without addition of the sample as a negative control and a group with addition of insulin so as to have a final concentration of 1 μg/mL as a positive control. Furthermore, there was set a group with addition of cytochalasin B (manufactured by nacalai tesque, 10435-81) to each group so as to have a final concentration of 40 μM in the same time as the time of addition of insulin. Thereafter, 2-deoxy-[1,2-^3H(N)]-glucose subjected to uptake into the adipocytes was determined in the same manner.

Data set [2] concerns mature adipocytes which were induced to be differentiated by xanthoangelol. As to the kind of experiment: Glucose uptake into adipocytes induced to be differentiated by xanthoangelol. The format is cell-based. To be noted: stimulation with 4-hydroxyderricin 20 μM; adipocytes differentiated with xanthoangelol 10 μM. The method, then:
Adipocytes which were induced to be differentiated by xanthoangelol were obtained, and thereafter it was confirmed on whether the glucose uptake into the adipocytes is enhanced by stimulation with insulin or 4-hydroxyderricin.
Specifically, as a sample, there was set a group with addition of a dimethyl sulfoxide solution of xanthoangelol having a final concentration of 10 μM. Thereafter, the medium and the sample were exchanged in the same manner as in the method described in Example 82 except that 3-isobutyl-1-methylxanthine having a final concentration of 0.5 mM was added concurrently with the addition of dexamethasone, to give mature adipocytes which were induced to be differentiated by xanthoangelol.
Next, the amount of 2-deoxyglucose uptake into the mature adipocytes during the stimulation with insulin or 4-hydroxyderricin in the resulting mature adipocytes was determined in the same manner as in the method described in Example 83.
Specifically, there were set the group without the addition and the group with addition of insulin having a final concentration of 1 μg/mL or 4-hydroxyderricin having a final concentration of 20 μM. Thereafter, the amount of 2-deoxy-[1,2-^3H(N)]-glucose uptake into the adipocytes was determined in the same manner.

In data set [3] the test system is type II diabetes model mice. Briefly: Amelioration effects on diabetes of 4-hydroxyderricin (blood glucose level). The format is in vivo. To be noted: male KK-Ay mice. The method, then: Pathological amelioration effects of 4-hydroxyderricin were examined using type II diabetes model mice. Experiments were carried out with five male 12-week old KK-Ay mice (CLEA Japan, Inc.) per group. 4-Hydroxyderricin was suspended or dissolved in a 0.5% (w/v) carboxymethyl cellulose solution (CMC) so as to have a concentration of 4% (w/v), and the suspension or solution was forcibly orally administered to the mice once a day at 200 mg/kg for consecutive days. CMC was administered to each mice in the control group at 5 mL/kg in the same manner. On the day before the beginning of administration, on the fourth day and on the eighteenth day, blood was collected from the veins of mouse tails, and the blood glucose level was determined with a simple blood glucose meter, ACCU-CHEK Compact (Roche Diagnostics K.K.). […] Here, during the experimental period, no changes were found in body weight and general symptoms.

Data set [4] relates to insulin-resistant mature adipocytes. As to the kind of experiment: Enhancing action on glucose uptake into insulin-resistant (TNF-α treated) mature adipocytes. The format is cell-based. The note with it: 4-hydroxyderricin 30 μM; mature adipocytes treated with mouse-derived TNF-α 10 or 20 ng/mL. The method, then:
It is said that tumor necrosis factor a (TNF-α) is deeply involved in insulin resistance, and it has been known that a signal from an insulin receptor is inhibited by treating mature adipocytes with TNF-α, so that a reaction of glucose uptake is inhibited by insulin stimulation (Proc. Natl. Acad. Sci. USA, vol. 91, p 4854-4858 (1994)). The enhancing action by 4-hydroxyderricin on glucose uptake into mature adipocytes in which insulin resistance was induced by TNF-α was evaluated.
The induction of differentiation into mature adipocytes was carried out in the same manner as in the method described in Example 83, except that after preparation of the mature adipocytes, in order to induce insulin resistance in these mature adipocytes, mouse-derived TNF-α (manufactured by Cosmobio, 3410) was added to the medium so as to have a final concentration of 10 ng/mL or 20 ng/mL, and the adipocytes were cultured for additional 2 days. […]
The enhancing action on glucose uptake was evaluated in the same manner as in the method described in Example 83. For each of the cells prepared in item (1) of Example 95 mentioned above, there were set a group containing 4-hydroxyderricin at a final concentration of 30 μM, a group without addition of the sample as a negative control, and a group with treatment with insulin, and the radioactivity of each group was determined. […]

In a further data set the test system is KK-Ay mice. As to the kind of experiment: Glucose tolerance test, xanthoangelol. The format is in vivo. The note with it: female KK-Ay mice, 200 mg/kg oral once a day. The method, then: Amelioration effects for glucose tolerance of xanthoangelol were examined using female 12-week old KK-Ay mice. Xanthoangelol which was previously suspended or dissolved in an olive oil in a concentration of 4% (w/v) was forcibly orally administered to a group to be administered with xanthoangelol at 200 mg/kg once a day for consecutive days. An olive oil was administered to the mice in the control group at 5 mL/kg in the same manner. The mice were fasted over one night spanning the sixteenth day to the seventeenth day from administration, and the glucose tolerance test was carried out in the same manner as in Example 91.

Setting [5] is: 200 mg/kg oral once a day in CMC, mean ± standard error.

As for `COc1ccc(C(=O)/C=C/c2ccc(O)cc2)c(O)c1CC=C(C)C` [4-Hydroxyderricin, 4,2′-Dihydroxy-3′-prenyl-4′-methoxychalcone], in data set [1] (4-hydroxyderricin 7.8 μM, compared to the negative control), the “2-deoxy-[1,2-3H(N)]-glucose uptake” value is “enhancement of 2-deoxy-[1,2-^3H(N)]-glucose uptake”. Moreover, in data set [1] (cytochalasin B 40 μM added to the 4-hydroxyderricin 7.8 μM, insulin 1 μg/mL and negative control groups), the “2-deoxy-[1,2-3H(N)]-glucose uptake on addition of cytochalasin B” value was “almost completely inhibited”. Moreover, in data set [2], the “2-deoxy-[1,2-3H(N)]-glucose uptake” value was “enhancement of 2-deoxy-[1,2-^3H(N)]-glucose uptake”. Also, the “blood glucose level (in words)” value in data set [3] (200 mg/kg oral once a day) is given as “lowered”. Besides, in data set [3] (setting [5]), the “Blood Glucose Level, Eighteenth Day” value worked out at 191 ± 10 mg/dL and the “Blood Glucose Level, Fourth Day” value was determined as 187 ± 9 mg/dL. For the same compound, the “changes in body weight and general symptoms” value in data set [3] (200 mg/kg oral once a day, experimental period) is listed as “no changes”. In data set [3] (day before beginning of administration, 200 mg/kg oral once a day in CMC, mean ± standard error), the “Blood Glucose Level, Previous Day” value is 262 ± 14 mg/dL. Moreover, the “enhancing action on glucose uptake, increase without TNF-α defined as 100%” value in data set [4] was “around 80%”.
For `CC(C)=CCC/C(C)=C/Cc1c(O)ccc(C(=O)/C=C/c2ccc(O)cc2)c1O` [Xanthoangelol, 4,2′,4′-Trihydroxy-3′-geranylchalcone], in the data set with KK-Ay mice, the “action on the elevation in the blood glucose level after the glucose tolerance (in words)” value is recorded as “suppressive action”. For the same compound, in the data set with KK-Ay mice (seventeenth day, fasted), the “Blood Glucose Level, Before Glucose Tolerance” value worked out at 106 ± 7 mg/dL. Besides, the “Blood Glucose Level, 30 Minutes After Tolerance” value in the data set on KK-Ay mice (seventeenth day, fasted, glucose 1 g/kg i.p.) was found to be 234 ± 15 mg/dL.

Values taken from US20070092551A1, “Therapeutic agent” (TAKARA BIO INC., priority 2003, published 2007).
